Data as given in US11340219B2, “Anti-pY1235-MET immunological binding reagent” (THE UNITED STATES OF AMERICA AS REPRESENTED BY THE …, priority 2016, dated 2022).
Entries after “also recorded” stand apart in the source; their conditions may differ. Like-named read-outs stand apart in the source and are kept apart here. One block for each molecule: values may come before it.

Columns and labels:
GTL-16 tumor xenografts = assay: GTL-16 xenograft tumor growth; assay type: in vivo, mice
Protocol: Animal models and drug administration. Athymic nude mice (nu/nu NCr; Animal Production Program, NCI-Frederick) were implanted with the human cancer cell lines U87 (glioblastoma); A549 (lung carcinoma); MDA-MB-231 (breast carcinoma); HT-29 (colon carcinoma); or with GTL-16, MKN45, or SNU5 (all gastric carcinomas, MET-amplified) as described (17). […] Sorafenib was dissolved in DMSO for in vitro studies. […] Tivantinib was administered orally in a PEG 400:20% vitamin E tocopheryl polyethylene glycol succinate solution (60:40) vehicle. Fit-for-purpose MET inhibitor studies.

MET = MET (Homo sapiens, UniProt P08581)
Protocol: Fit-for-purpose MET inhibitor studies. […] Extracts of core needle biopsies collected 4 h after tivantinib administration on Day 8 were analyzed for MET, pMET, and hypoxia inducible factor 1, alpha subunit (HIF-1α) (21).
MET immunoassay procedure. The full-length MET immunoassay measures the total levels of full-length MET in tumor tissue samples, irrespective of phosphorylation status. […] Wells were blocked for 2 h with 1×PBS, 0.5% mannitol, 0.2% glycine, and 0.2% BSA, and strips were assembled on 96-well plate frames, freeze-dried, and sealed in desiccated pouches (6-month stability). For the immunoassay, 100 μL each of purified rMET calibrator, controls, and tumor lysates (at protein concentrations of 10-50 μg/mL) prepared in assay buffer (1×PBS/Casein [BioFx] containing PhosSTOP, protease inhibitors and 0.1% Triton X-100 [Roche]) were added to the AF276-coated wells. The rMET assay calibrator was prepared for the dynamic range of the assay. Plates were incubated at ambient temperature (25° C.±3° C.) on an orbital shaker (600 rpm) 1 h to capture MET. After three washes with assay buffer, 100 μL/well 200 ng/mL biotin-conjugated mouse monoclonal MET antibody (clone L41G3) was added to the plates and incubated 1 h at 25° C.±3° C., followed by a second wash and the addition of 100 μL/well 200 ng/mL streptavidin poly-HRP conjugate (Pierce). After 30-min incubation with the HRP-conjugate, plates were washed 4 times and 100 μL SuperSignal ELISA Pico Chemiluminescent Substrate (pierce) was added to each well. Plates were read within 10 min using an Infinite 200 Microplate ELISA reader (Tecan, USA). MET immunoassay calibration curves were analyzed on GraphPad Prism and unknown values were calculated using 4-parameter curve fitting.
Three different pMET immunoassays were developed for the PD studies: pY1234/1235-, pY1235-, and pY1356-MET (Supplemental Material). […] The pMET assay calibrators were prepared for the dynamic range of each assay. Assay control samples were prepared by combining GTL-16, SNU5, A549, MKN45, or U87 xenograft tumor lysates to achieve low, medium, and high MET concentrations at 10 to 50 μg/mL total protein concentrations.

HIF-1α = HIF-1α immunoassay in SNU5 xenograft extracts; assay type: in vivo; settings: SNU5, day 8, pazopanib 100 mg/kg daily, p<0.05
[1] = system: pY1235-MET in MET-expressing cell lines (GTL-16, HT29, A549); assay: pY1235-MET immunofluorescence staining of treated cancer cell lines; assay type: cell-based, human; settings: 100 nM drug, clone 23111 staining, FIG. 1B
Protocol: MET immunofluorescence analysis. […] Cells were fixed in 10% neutral-buffered formalin (Sigma-Aldrich) for 24 h, pelleted, and then embedded in paraffin. After 5-μm sectioning, antigen retrieval with Bond Epitope Retrieval Solution 2 (at 100° C. for 10 min) and immunofluorescent staining were performed on the Bond-max Autostainer (Leica Biosystems). For antigen detection, 10 μ/mL primary antibody (anti-pY1235-MET, clone 23111) was followed by 10 μg/mL goat anti-rabbit AF488 (Life Technologies). Immunofluorescence microscopy was performed on core needle biopsies of a resected a human HPRC tumor stained with 5 μg/mL anti-full-length MET (clone Met4) followed by 10 μg/mL anti-mouse AF660 (Life Technologies). Image acquisition and analysis were performed on a wide-field fluorescent, confocal microscope (Nikon 90i, Andor Camera, NIS Elements Software).

pY1235-MET = pY1235-MET (Homo sapiens, UniProt P08581); assay: BIAlite-Biosensor interaction analysis of antibody binding affinity; settings: range of protein concentrations, details not shown
Protocol: To facilitate bulk production, rabbit monoclonal antibodies (clones 23111 and 7334) were converted into recombinant proteins through transient expression in HEK293 cells (8). The cDNA from rabbit hybridomas was used to clone IgG heavy and light chains in a 7.7 kB ampicillin-resistant mammalian expression vector co-expressing EB oriP, zeocin selection, and CMV promoter for transient expression in HEK293 cells. For mammalian expression plasmids, DNA was prepared using the GenElute XP Maxiprep kit (Sigma-Aldrich) and verified by agarose gel electrophoresis. Recombinant protein production provided typical yields of 100-300 mg/L in suspension cultures. Specificity of antibodies, determined by Western blot using xenograft lysate and rMET protein, was unaffected by this process. To further characterize these MET antibodies, their binding affinities were measured over a range of protein concentrations using interaction analysis performed with a BIAlite-Biosensor (Pharmacia) as previously described (9).

pY1234-MET = assay: Western blot specificity analysis; assay type: binding; settings: FIG. 7A
Protocol: (§1) Rabbits were selected for splenectomy and B-cells were subsequently fused with the rabbit cell line 240E-W2 to produce hybridomas based on high antiserum binding to phosphorylated synthetic peptide and lower or undetectable binding to the nonphosphorylated synthetic peptide of identical sequence. Specificity of the pY1235-MET antibody (clone 23111) was tested by preincubating the antibody with synthetic MET peptides phosphorylated at Y1235 (99% phosphorylated at Y1235, nonphosphorylated at Y1234, 1% other impurities) or at Y1234, or preincubating with recombinant RON (cytoplasmic domain, Millipore) (FIG. 7A). Only preincubation with the pY1235 peptide blocked binding of the antibody to the MET protein band. Specificity of clone 23111 was further confirmed by Western blotting of a GST-fusion with MET amino acids 912-1390 harboring a Y1235D-specific mutation (N-terminal GST-Y1235D-MET peptide, 76 kDa; CarnaBio USA, Inc) and of a recombinant cytoplasmic domain of RON (FIG. 7B). […] According to the manufacturer's specifications, anti-pY1234/1235-MET (clone D26) can also bind to tyrosine phosphorylated SRC proteins by Western blot.
(§2) Protein concentrations were determined by bicinchoninic acid assay (BCA assay), and cell lysate loads between 25 and 50 μg per well were run on 4% to 20% precast polyacrylamide gradient gels (Bio-Rad Laboratories) for SDS-PAGE at 100 V for up to 2 hours. Proteins separated by gel electrophoresis were transferred to a nitrocellulose membrane using the Mini-PROTEAN Tetra electrophoresis system (Bio-Rad) at 90 V for 4 hours at 2° C. to 8° C. Membranes were blocked in Odyssey blocking buffer (LI-COR) for 1 hour at 25° C.±3° C. Blots were probed first with 1 μg/mL mouse, rabbit, or goat anti-MET monoclonal antibody in Odyssey blocking buffer overnight at 2° C. to 8° C. with slow orbital shaking and then with an IR dye-labeled secondary antibody against mouse, rabbit, or goat antibody (1:5000 in Odyssey blocking buffer; LI-COR) for 1 hour at 25° C.±3° C. with orbital shaking. Blots were visualized using the Odyssey Infrared imager (LI-COR). […]

[2] = biological target: T1, recombinant Y1235D-MET peptide (N-terminal GST-Y1235D-MET) (Homo sapiens, UniProt P08581, Y1235D); assay: Western blot specificity analysis; assay type: binding; settings: FIG. 7B
T1 construct: a GST-fusion with MET amino acids 912-1390 harboring a Y1235D-specific mutation; purchased CarnaBio USA, Inc
Protocol: as §1, §2

[3] = biological target: T2, recombinant cytoplasmic domain of RON (Homo sapiens, UniProt Q04912); assay: Western blot specificity analysis; assay type: binding; settings: FIGS. 7A and 7B
T2 construct: preincubating with recombinant RON (cytoplasmic domain, Millipore); purchased Millipore
T2 sequence (Q04912 979-1400 limits assumed): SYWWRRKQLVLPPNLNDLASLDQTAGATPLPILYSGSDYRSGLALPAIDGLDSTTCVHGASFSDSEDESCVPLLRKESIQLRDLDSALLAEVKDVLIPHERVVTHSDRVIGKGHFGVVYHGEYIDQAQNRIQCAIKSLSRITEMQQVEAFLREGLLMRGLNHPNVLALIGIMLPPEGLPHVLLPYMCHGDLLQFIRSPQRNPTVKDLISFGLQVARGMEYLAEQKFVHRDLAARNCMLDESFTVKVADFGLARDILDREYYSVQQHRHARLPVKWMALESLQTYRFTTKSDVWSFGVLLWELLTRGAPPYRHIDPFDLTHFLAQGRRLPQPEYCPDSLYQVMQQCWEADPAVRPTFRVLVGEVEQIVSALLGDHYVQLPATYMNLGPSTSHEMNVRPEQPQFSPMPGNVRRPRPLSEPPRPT
Protocol: as §1, §2

Molecule: C[C@@H](Oc1cc(-c2cnn(C3CCNCC3)c2)cnc1N)c1c(Cl)ccc(F)c1Cl [PF02341066, crizotinib]
- tumor growth (GTL-16 tumor xenografts; daily oral 25 mg/kg, by the seventh day of treatment): achieved stasis

- reduction in pY1235-MET:MET ratio (MET; GTL-16, 25 mg/kg IP, 4 h after first dose): 62%
- reduction in pY1235-MET:MET ratio (MET; GTL-16, 50 mg/kg IP, 4 h after first dose): 80%
- reduction in pY1235-MET:MET ratio (MET; GTL-16, 4 h after the first dose (discussion summary)): 60-80%
- pY1356-MET:MET ratio (MET; GTL-16, PHA665752 after first dose, recovered to normal within 20 h): declined after the first dose
Molecule: Cc1[nH]c(/C=C2\C(=O)Nc3ccc(S(=O)(=O)Cc4c(Cl)cccc4Cl)cc32)c(C)c1C(=O)N1CCC[C@@H]1CN1CCCC1 [PHA665752]
- tumor growth (GTL-16 tumor xenografts; 25 and 50 mg/kg/day IP, after 8-10 days of treatment): achieved tumor stasis

Molecule: Cc1ccc(Nc2nccc(N(C)c3ccc4c(C)n(C)nc4c3)n2)cc1S(N)(=O)=O [pazopanib]
- increase in HIF-1α levels (HIF-1α): 46%

Molecule: CNC(=O)c1cc(Oc2ccc(NC(=O)Nc3ccc(Cl)c(C(F)(F)F)c3)cc2)ccn1 [sorafenib]
- sensitivity of pY1235-MET plasma membrane staining to drug [1]: not

- IC50 (pY1235-MET): 1.2 nM
- cross-reactivity with cytoplasmic domain of RON [3]: no cross-reactivity
B1: clone 23111: rabbit monoclonal antibody specific to pY1235-MET; VH SEQ ID NO:1, VL SEQ ID NO:2 (antibody, V domains shown)
VH: QSVEESGGRLVTPGTPLTLTCTVSGFSLSNYAMGWFRQAPGKGLEWIGIISRSGALWYANWANGRFTISKTSTTVDLKITSPTPEDTATYFCARTNYYDGYGGVDAVLTRFDFWGQGTLVTVSSG
VL: ADVVMTQTPSSVEAAVGGTVTIKCQASQSIGGGLSWYQQKAGQPPKLLIYGASTLESGVPSRFKGSGSGTEFTLTISDLECADAATYYCQSNYGSDIRDYGHTFGGGTEVVVKGDPVAPTVLIFPP
- reactivity with MET epitope phosphorylated only at Y1234 (pY1234-MET): no cross-reactivity; also recorded: undetectable reactivity
- reactivity with Y1235D-MET (tyrosine 1235 replaced by aspartic acid) [2]: no cross-reactivity; also recorded: undetectable cross-reactivity
